# Results from patent US20050203086A1, “Methods of treatment using an EP2 selective receptor agonist” (Pfizer Inc., priority 2004, published 2005).
# Biological target: T1, prostaglandin E2 type 2 (EP2) receptors (Homo sapiens, UniProt P43116)
# T1 construct: These full length receptors are used to prepare 293S cells expressing the EP1, EP2, EP3 and EP4 receptors; expressed in transfected cells; membranes
# Assay: Assay for Binding to Prostaglandin E2 Receptors (3H-prostaglandin E2 displacement, membranes of transfected 293S cells)
# Conditions: concentration displacing 50% of specifically bound 3H-prostaglandin E2, 1 hour at 25° C.
# Protocol: Membrane Preparation: All operations are performed at […]. Transfected cells expressing prostaglandin E2 type 1 receptors (EP1), type 2 (EP2), type 3 (EP3) or type 4 (EP4) receptors are harvested and suspended to 2 million cells per ml in Buffer A [50 mM Tris-HCl (pH 7.4), 10 mM MgCl2, 1 mM EDTA, 1 mM Pefabloc peptide, (Boehringer Mannheim Corp., Indianapolis, Ind.), 10 uM Phosporamidon peptide, (Sigma, St. Louis, Mo.), 1 uM pepstatin A peptide, (Sigma, St. Louis, Mo.), 10 uM elastatinal peptide, (Sigma, St. Louis, Mo.), 100 uM antipain peptide, (Sigma, St. Louis, Mo.)]. The cells are lysed by sonification with a Branson Sonifier (Model #250, Branson Ultrasonics Corporation, Danbury, Conn.) in 2 fifteen second bursts. Unlysed cells and debris are removed by centrifugation, at 100×g for 10 min. Membranes are then harvested by centrifugation at 45,000×g for 30 minutes. […] Resuspended membranes are then stored frozen at −80° C. until use.
# Binding Assay: Frozen membranes prepared as above are thawed and diluted to 1 mg protein per ml in Buffer A above. […] The membranes with bound ^3H-prostaglandin E2 are trapped by the filter, while the buffer and unbound ^3H-prostaglandin E2 pass through the filter into waste. Each sample is then washed 3 times with 3 ml of [50 mM Tris-HCl (pH 7.4), 10 mM MgCl2, 1 mM EDTA]. The filters are then dried by heating in a microwave oven.
# Typically, PCR (polymerase chain reaction) primers corresponding to the 5′ and 3′ ends of the published full length receptor are made according to the well known methods disclosed above and are used in an RT-PCR reaction using the total RNA from human kidney (for EP1), human lung (for EP2), human lung (for EP3) or human lymphocytes (for EP4) as a source. PCR products are cloned by the TA overhang method into pCR2.1 (Invitrogen, Carlsbad, Calif.) and identity of the cloned receptor is confirmed by DNA sequencing.
# Stable cell lines expressing the receptor are established following selection of transfected cells with G418.
# T1 sequence (P43116 whole entry): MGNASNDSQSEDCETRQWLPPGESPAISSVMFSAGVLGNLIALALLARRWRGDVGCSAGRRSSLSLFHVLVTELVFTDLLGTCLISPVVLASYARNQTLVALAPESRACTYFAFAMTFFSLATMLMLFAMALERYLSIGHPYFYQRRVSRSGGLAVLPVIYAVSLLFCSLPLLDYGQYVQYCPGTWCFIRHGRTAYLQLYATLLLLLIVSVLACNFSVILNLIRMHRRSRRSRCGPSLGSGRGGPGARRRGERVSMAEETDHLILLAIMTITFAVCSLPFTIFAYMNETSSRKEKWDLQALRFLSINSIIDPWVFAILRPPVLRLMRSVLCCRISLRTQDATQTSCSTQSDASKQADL
row,Compound,IC50
1,"O=C(O)Cc1cccc(CN(Cc2ccc(-c3ccccc3)o2)S(=O)(=O)c2cccnc2)c1 [Example 1c, (3-(((5-Phenyl-furan-2-ylmethyl)-(pyridine-3-sulfonyl)-amino)-methyl)-phenyl)-acetic acid]",24 nM
2,"O=C(O)Cc1cccc(CN(Cc2ccc(Cc3ccccc3)cn2)S(=O)(=O)c2cccnc2)c1 [Example 1d, (3-(((5-Benzyl-pyridin-2-ylmethyl)-(pyridine-3-sulfonyl)-amino)-methyl)-phenyl)-acetic acid]",885 nM
3,"CNS(=O)(=O)c1ccc(CN(Cc2cccc(CC(=O)O)c2)S(=O)(=O)c2cccnc2)cc1 [Example 1h, (3-(((4-Methylsulfamoyl-benzyl)-(pyridine-3-sulfonyl)-amino)-methyl)-phenyl)-acetic acid]",745 nM
4,"CCCCc1ccc(CN(Cc2cccc(CC(=O)O)c2)S(=O)(=O)c2ccc([N+](=O)[O-])cc2)cc1 [Example 1k, (3-(((4-Butyl-benzyl)-(4-nitro-benzenesulfonyl)-amino)-methyl)-phenyl)-acetic acid]",1760 nM
5,"CCCCc1ccc(CN(Cc2cccc(CC(=O)O)c2)S(=O)(=O)c2ccc(C#N)cc2)cc1 [Example 1l, (3-(((4-Butyl-benzyl)-(4-cyano-benzenesulfonyl)-amino)-methyl)-phenyl)-acetic acid]",600 nM
6,"CCCCc1ccc(CN(Cc2cccc(CC(=O)O)c2)S(=O)(=O)c2csc(-c3ccccn3)c2)cc1 [Example 1n, (3-(((4-Butyl-benzyl)-(5-pyridin-2-yl-thiophene-3-sulfonyl)-amino)-methyl)-phenyl)-acetic acid]",140 nM
7,"CCCCc1ccc(CN(Cc2cccc(CC(=O)O)c2)S(=O)(=O)c2ccc(C)cc2)cc1 [Example 1o, (3-(((4-Butyl-benzyl)-(toluene-4-sulfonyl)-amino)-methyl)-phenyl)-acetic acid]",550 nM
8,"O=C(O)Cc1cccc(CN(Cc2ccc3c(c2)OCCO3)S(=O)(=O)c2cccnc2)c1 [Example 1p, (3-(((2,3-Dihydro-benzo[1.4]dioxin-6-ylmethyl)-(pyridine-3-sulfonyl)-amino)-methyl)-phenyl)-acetic acid]",44 nM
9,"O=C(O)Cc1cccc(CN(Cc2cc3ccccc3o2)S(=O)(=O)c2cccnc2)c1 [Example 1q, (3-((Benzofuran-2-ylmethyl-(pyridine-3-sulfonyl)-amino)-methyl)-phenyl)-acetic acid]",39 nM
10,"O=C(O)Cc1cccc(CN(Cc2ccc(-n3ccnc3)cc2)S(=O)(=O)c2cccnc2)c1 [Example 1s, (3-(((4-Imidazol-1-yl-benzyl)-(pyridine-3-sulfonyl)-amino)-methyl)-phenyl)-acetic acid]",165 nM
11,"O=C(O)Cc1cccc(CN(Cc2ccc(-c3ncccn3)cc2)S(=O)(=O)c2cccnc2)c1 [Example 1t, (3-(((Pyridine-3-sulfonyl)-(4-pyrimidin-2-yl-benzyl)-amino)-methyl)-phenyl)-acetic acid]",8 nM
12,"O=C(O)Cc1cccc(CN(Cc2ccc(-c3nccs3)cc2)S(=O)(=O)c2cccnc2)c1 [Example 1u, (3-(((Pyridine-3-sulfonyl)-(4-thiazol-2-yl-benzyl)-amino)-methyl)-phenyl)-acetic acid]",7 nM
13,"Cn1cnc(S(=O)(=O)N(Cc2ccc(-c3nccs3)cc2)Cc2cccc(CC(=O)O)c2)c1 [Example 1v, (3-(((1-Methyl-1H-imidazole-4-sulfonyl)-(4-thiazol-2-yl-benzyl)-amino)-methyl)-phenyl)-acetic acid]",9 nM
14,"CN(C)c1ccc(CN(Cc2cccc(OCC(=O)O)c2)S(=O)(=O)c2cccnc2)cc1 [Example 1z, (3-(((4-Dimethylamino-benzyl)-(pyridine-3-sulfonyl)-amino)-methyl)-phenoxy)-acetic acid]",19 nM
15,"O=C(O)Cc1cccc(CN(CCOc2cccc(Cl)c2)S(=O)(=O)c2cccnc2)c1 [Example 2, (3-(((2-(3-Chloro-phenoxy)-ethyl)-(Pyridine-3-sulfonyl)-amino]-methyl)-phenyl)-acetic acid]",45 nM
16,"O=C(O)Cc1cccc(CN(C/C=C/c2cc(Cl)cc(Cl)c2)S(=O)(=O)c2cccnc2)c1 [Example 2a, Trans-(3-(((3-(3,5-Dichloro-phenyl)-allyl)-(pyridine-3-sulfonyl)-amino)-methyl)-phenyl)-acetic acid]",37 nM
17,"O=C(O)c1ccc(CCCN(CCSc2cccc(Cl)c2)S(=O)(=O)c2cccnc2)s1 [Example 3a, 5-(3-((2-(3-Chloro-phenylsulfanyl)-ethyl)-(pyridine-3-sulfonyl)-amino)-propyl) thiophene-2-carboxylic acid]",440 nM
18,"COc1ccc(S(=O)(=O)N(CCCc2cccc(Cl)c2)CCCc2ccc(C(=O)O)s2)cc1 [Example 4a, 5-(3-((3-(3-Chloro-phenyl)-propyl)-(4-methoxy-benzenesulfonyl)-amino)-propyl)-thiophene-2-carboxylic acid]",795 nM

# Continued, values first:
row,IC50,Compound
1,94 nM,"O=C(O)c1ccc(CCCN(Cc2ccc(-c3nccs3)cc2)S(=O)(=O)c2cccnc2)s1 [Example 1an, 5-(3-((Pyridine-3-sulfonyl)-(4-thiazol-2-yl-benzyl)-amino)-propyl)-thiophene-2-carboxylic acid]"
2,160 nM,"Cn1cc(CN(Cc2cccc(CC(=O)O)c2)S(=O)(=O)c2cccnc2)c2ccccc21 [Example 1b, (3-(((1-Methyl-1H-indol-3-ylmethyl)-(pyridine-3-sulfonyl)-amino)-methyl)-phenyl)-acetic acid]"
3,760 nM,O=C(O)Cc1cccc(CN(Cc2ccc(SCCc3ccccc3)cc2)S(=O)(=O)c2cccnc2)c1 [Example 1e]
4,52 nM,"CCCOc1ccc(CN(Cc2cccc(CC(=O)O)c2)S(=O)(=O)c2cccnc2)cc1O [Example 1f, (3-(((3-Hydroxy-4-propoxy-benzyl)-(pyridine-3-sulfonyl)-amino)-methyl)-phenyl)-acetic acid]"
5,109 nM,"CCCCCc1ccc(CN(Cc2cccc(CC(=O)O)c2)S(=O)(=O)c2cccnc2)cc1 [Example 1g, (3-(((4-Pentyl-benzyl)-(pyridine-3-sulfonyl)-amino)-methyl)-phenyl)-acetic acid]"
6,72 nM,"CC(C)Oc1ccc(CN(Cc2cccc(CC(=O)O)c2)S(=O)(=O)c2cccnc2)cc1 [Example 1i, (3-(((4-Isopropoxy-benzyl)-(pyridine-3-sulfonyl)-amino)-methyl)-phenyl)-acetic acid]"
7,385 nM,O=C(O)Cc1cccc(CN(Cc2cc(Cl)cs2)S(=O)(=O)c2cccnc2)c1 [Example 1j]
8,245 nM,"CCCCc1ccc(CN(Cc2cccc(CC(=O)O)c2)S(=O)(=O)c2cccc(F)c2)cc1 [Example 1m, (3-(((4-Butyl-benzyl)-(3-fluoro-benzenesulfonyl)-amino)-methyl)-phenyl)-acetic acid]"
9,308 nM,"CCCCc1ccc(CN(Cc2cccc(CC(=O)O)c2)S(=O)(=O)c2cn(C)cn2)cc1 [Example 1r, (3-(((4-Butyl-benzyl)-(1-methyl-1H-imidazole-4-sulfonyl)-amino)-methyl)-Phenyl)-acetic acid]"
10,24 nM,"CN(C)c1ccc(CN(Cc2cccc(CC(=O)O)c2)S(=O)(=O)c2cccnc2)cc1 [Example 1w, (3-(((4-Dimethylamino-benzyl)-(pyridine-3-sulfonyl)-amino]-methyl)-phenyl)-acetic acid]"
11,160 nM,"O=C(O)COc1cccc(CN(Cc2ccc(C3CCCCC3)cc2)S(=O)(=O)c2cccnc2)c1 [Example 1x, (3-(((4-Cyclohexyl-benzyl)-(pyridine-3-sulfonyl)-amino)-methyl)-phenoxy)-acetic acid]"
12,13 nM,"O=C(O)COc1cccc(CN(CCOc2cc(Cl)cc(Cl)c2)S(=O)(=O)c2cccnc2)c1 [Example 1y, (3-(((2-(3.5-Dichloro-phenoxy)-ethyl)-(pyridine-3-sulfonyl)-amino)-methyl)-phenoxy)-acetic acid]"
13,385 nM,"O=C(O)Cc1cccc(CN(CCOc2cc(Cl)cc(Cl)c2)S(=O)(=O)c2cccnc2)c1 [Example 2b, (3-(((2-(3.5-Dichloro-phenoxy)-ethyl)-(pyridine-3-sulfonyl)-amino)-methyl)-phenyl)-acetic acid]"
14,7.83 nM,"O=C(O)COc1cccc(CN(Cc2ccc(-c3nccs3)cc2)S(=O)(=O)c2cccnc2)c1 [Example 3b, (3-(((Pyridine-3-sulfonyl)-(4-thiazol-2-yl-benzyl)-amino)-methyl)-phenoxy)-acetic acid.2TFA]"
15,225 nM,"O=C(O)c1ccc(CCCN(CCCc2cccc(Cl)c2)S(=O)(=O)c2cccnc2)s1 [Example 4, 5-(3-((3-(3-Chloro-phenyl)-propyl)-(pyridine-3-sulfonyl)-amino)-propyl)-thiophene-2-carboxylic acid]"
